Measurements reported in US10988459B2 (priority 2015, dated 2021).
pKi: −log10 of the molar value.

These compounds were tested against human RIP1 kinase domain (2-375) (Homo sapiens (Human), UniProt Q13546) (assay: biochemical). Conditions: Table 1; apparent Ki (Morrison tight-binding fit); 50 nM RIP1 kinase domain, 50 uM ATP, 2 hours incubation; read-out: RIP1 Ki.
Assay type: biochemical
Procedure, shortened: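 50 nM purified kinase domain from baculovirus-infected insect cells, incubated 2 h with compound in 50 mM Hepes pH 7.5, 30 mM MgCl2, 1 mM DTT, 50 uM ATP, 0.002% Brij-35, 0.5% DMSO. ADP formation read by Transcreener FP at 633 nm excitation. Ki^app fitted with the Morrison tight-binding equation.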

Sequence of human RIP1 kinase domain (2-375) (Q13546 2-375): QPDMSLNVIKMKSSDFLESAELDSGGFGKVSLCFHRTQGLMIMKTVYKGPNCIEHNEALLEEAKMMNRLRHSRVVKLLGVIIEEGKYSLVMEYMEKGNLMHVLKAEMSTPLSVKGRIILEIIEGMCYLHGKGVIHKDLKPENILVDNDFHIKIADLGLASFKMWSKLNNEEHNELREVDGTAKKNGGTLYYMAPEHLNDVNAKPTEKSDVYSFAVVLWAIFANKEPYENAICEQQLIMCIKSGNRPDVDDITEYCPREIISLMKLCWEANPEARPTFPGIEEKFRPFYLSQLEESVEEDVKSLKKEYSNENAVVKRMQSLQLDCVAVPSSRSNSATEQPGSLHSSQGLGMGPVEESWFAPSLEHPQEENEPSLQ

Row | Compound | pKi
1 | CC(C)(C)C1CCc2[nH]nc(C(=O)N[C@H]3CCc4cc(Cl)ccc4NC3=O)c2C1 (stereo partly drawn) [Example 47, 5-(tert-butyl)-N-((S)-7-chloro-2-oxo-2,3,4,5-tetrahydro-1H-benzo[b]azepin-3-yl)-4,5,6,7-tetrahydro-1H-indazole-3-carboxamide] | 6.46

Same assay, conditions: Table 5; apparent Ki (Morrison tight-binding fit); 50 nM RIP1 kinase domain, 50 uM ATP, 2 hours incubation; read-out: Ki

Row | pKi | Compound
2 | 7.19 | COCCc1cc2n(n1)CC[C@H](NC(=O)c1ncn(Cc3ccccc3)n1)C(=O)N2C [Example 767, 1-benzyl-N-[(6S)-2-(2-methoxyethyl)-4-methyl-5-oxo-7,8-dihydro-6H-pyrazolo [1,5-a][1,3]diazepin-6-yl]-1,2,4-triazole-3-carboxamide]
3 | 6.21 | CN1C(=O)[C@@H](NC(=O)c2ncn(Cc3ccccc3)n2)CCn2nc(CCN3CCC3)cc21 [Example 756]
4 | 6.85 | CN1C(=O)[C@@H](NC(=O)c2ncn(Cc3ccccc3)n2)CCn2nc(CN3CC(F)C3)cc21 (single isomer, unassigned) [Example 726]

Same assay, conditions: human RIP1 kinase domain (2-375), 50 uM ATP, 2 hours incubation, Transcreener ADP assay; read-out: RIP1 Ki

Row | pKi | Compound
5 | 7.42 | Cc1cc2n(n1)CC[C@H](NC(=O)c1ncn(Cc3ccc(F)cc3F)n1)C(=O)N2C [Example 221, (S)-1-(2,4-difluorobenzyl)-N-(2,4-dimethyl-5-oxo-5,6,7,8-tetrahydro-4H-pyrazolo[1,5-a][1,3]diazepin-6-yl)-1H-1,2,4-triazole-3-carboxamide]
6 | 7.17 | CN1C(=O)C(NC(=O)c2cc3c(cn2)cnn3[C@H]2CCOC2)COc2ccccc21 (stereo partly drawn) [Example 156, N-(5-methyl-4-oxo-2,3,4,5-tetrahydrobenzo[b][1,4]oxazepin-3-yl)-1-((S)-tetrahydrofuran-3-yl)-1H-pyrazolo[4,3-c]pyridine-6-carboxamide]
7 | 7.53 | Cc1cc2n(n1)CC[C@H](NC(=O)c1ncn(Cc3cccc(F)c3F)n1)C(=O)N2C [Example 219, (S)-1-(2,3-difluorobenzyl)-N-(2,4-dimethyl-5-oxo-5,6,7,8-tetrahydro-4H-pyrazolo[1,5-a][1,3]diazepin-6-yl)-1H-1,2,4-triazole-3-carboxamide]
8 | 6.70 | CN1C(=O)[C@@H](NC(=O)c2nnn3c2CC(c2ccccc2)C3)COc2ccccc21 (stereo partly drawn) [Example 119, N—((S)-5-methyl-4-oxo-2,3,4,5-tetrahydrobenzo[b][1,4]oxazepin-3-yl)-5-phenyl-5,6-dihydro-4H-pyrrolo[1,2-c][1,2,3]triazole-3-carboxamide]

Row | Compound | pKi
9 | CN1C(=O)[C@@H](NC(=O)c2nnn3c2C[C@H](C(F)(F)F)CC3)COc2ccccc21 [Example 149, (R)-N-((S)-5-methyl-4-oxo-2,3,4,5-tetrahydrobenzo[b][1,4]oxazepin-3-yl)-5-(trifluoromethyl)-4,5,6,7-tetrahydro-[1,2,3]triazolo[1,5-a]pyridine-3-carboxamide] | 7.19
10 | (S)—N-(5-methyl-4-oxo-2,3,4,5-tetrahydrobenzo[b][1,4]oxazepin-3-yl)-6-(trifluoromethyl)-[1,2,4]triazolo[4,3-a]pyridine-3-carboxamide [Example 113] | 5.77

Same assay, conditions: human RIP1 kinase domain (2-375), Transcreener ADP assay, 50 uM ATP, 2 hours incubation; read-out: RIP1 Ki

Row | pKi | Compound
11 | 5.23 | CN1C(=O)[C@@H](NC(=O)c2ncn(Cc3ccc(F)c(F)c3)n2)CCn2nc([C@H]3CC3(F)F)cc21 [Example 313, 1-(3,4-difluorobenzyl)-N—((S)-2-((R)-2,2-difluorocyclopropyl)-4-methyl-5-oxo-5,6,7,8-tetrahydro-4H-pyrazolo[1,5-a][1,3]diazepin-6-yl)-1H-1,2,4-triazole-3-carboxamide]
12 | 6.57 | CC[C@]1(C)OCc2cnc(C(=O)N[C@H]3COc4cc(F)cc(F)c4NC3=O)cc21 [Example 243, (S)—N—((S)-6,8-difluoro-4-oxo-2,3,4,5-tetrahydrobenzo[b][1,4]oxazepin-3-yl)-1-ethyl-1-m ethyl-1,3-dihydrofuro[3,4-c]pyridine-6-carboxamide]
13 | 5.10 | CC[C@@]1(C)OCc2cnc(C(=O)NC3CCn4nc(C5CCOCC5)cc4N(C)C3=O)cc21 (stereo partly drawn) [Example 236, (1R)-1-ethyl-1-methyl-N-(4-methyl-5-oxo-2-(tetrahydro-2H-pyran-4-yl)-5,6,7,8-tetrahydro-4H-pyrazolo[1,5-a][1,3]diazepin-6-yl)-1,3-dihydrofuro[3,4-c]pyridine-6-carboxamide]
14 | 6.00 | CN1C(=O)[C@@H](NC(=O)c2cc(C3(O)CCCC3)ccn2)COc2ccccc21 [Example 328, (S)-4-(1-hydroxycyclopentyl)-N-(5-methyl-4-oxo-2,3,4,5-tetrahydrobenzo[b][1,4]oxazepin-3-yl)picolinamide]
15 | 5.70 | CC[C@@]1(C)OCc2cnc(C(=O)NC3CCn4ccnc4N(C)C3=O)cc21 (stereo partly drawn) [Example 233, (1R)-1-ethyl-1-methyl-N-(9-methyl-8-oxo-6,7,8,9-tetrahydro-5H-imidazo [1,2-a][1,3]diazepin-7-yl)-1,3-dihydrofuro[3,4-c]pyridine-6-carboxamide]

Same assay, conditions: tight-binding apparent inhibition constant; human RIP1 kinase domain (2-375) 50 nM, 50 uM ATP, 2 hours; read-out: Ki

Row | pKi | Compound
16 | 7.00 | CN1C(=O)[C@@H](NC(=O)c2nc3n(n2)C(c2ccccc2F)CCC3)CCn2nccc21 (stereo partly drawn) [Example 387, 5-(2-fluorophenyl)-N—((S)-4-methyl-5-oxo-5,6,7,8-tetrahydro-4H-pyrazolo[1,5-a][1,3]diazepin-6-yl)-5,6,7,8-tetrahydro-[1,2,4]triazolo[1,5-a]pyridine-2-carboxamide]
17 | 6.16 | CN1C(=O)[C@@H](NC(=O)c2nc3n(n2)CCO[C@H]3c2ccccc2)COc2ccccc21 (racemic) [Example 695, rac-(8S)-8-phenyl-N-[rac-(3S)-5-methyl-4-oxo-2,3-dihydro-1,5-benzoxazepin-3-yl]-6,8-dihydro-5H-[1,2,4] triazolo[5,1-c][1,4]oxazine-2-carboxamide]
18 | 8.11 | Cc1cc2n(n1)CC[C@H](NC(=O)c1ncn(Cc3ccc(Cl)cc3Cl)n1)C(=O)N2C [Example 473, 1-[(2,4-dichlorophenyl)methyl]-N-[(6S)-2,4-dimethyl-5-oxo-7,8-dihydro-6H-pyrazolo[1,5-a][1,3]diazepin-6-yl]-1,2,4-triazole-3-carboxamide]
19 | 8.30 | Cc1cc2n(n1)CC[C@H](NC(=O)c1nnn(Cc3ccccc3)n1)C(=O)N2C [Example 541, 2-benzyl-N-(6S)-2,4-dimethyl-5-oxo-7,8-dihydro-6H-pyrazolo[1,5-a][1,3]diazepin-6-yltetrazole-5-carboxamide]
20 | 6.89 | Cc1cn2c(n1)N(C)C(=O)C(NC(=O)c1ncn(Cc3ccccc3)n1)CC2 (centres unmarked) [Example 535, 1-benzyl-N-(2,9-dimethyl-8-oxo-6,7,8,9-tetrahydro-5H-imidazo[1,2-a][1,3]diazepin-7-yl)-1H-1,2,4-triazole-3-carboxamide]
21 | 7.55 | CC(C)n1ncc2cnc(C(=O)N[C@H]3CCc4cc(F)cc(F)c4NC3=O)nc21 [Example 607, 1-isopropyl-N-[(3S)-7,9-difluoro-2-oxo-1,3,4,5-tetrahydro-1-benzazepin-3-yl]pyrazolo[3,4-d]pyrimidine-6-carboxamide]
22 | 6.33 | O=C(N[C@H]1COc2cc(F)cc(F)c2NC1=O)c1nc2n(n1)CCO[C@@H]2c1ccccc1 [Example 641, (8R)-8-phenyl-N-[(3S)-6,8-difluoro-4-oxo-3,5-dihydro-2H-1,5-benzoxazepin-3-yl]-6,8-dihydro-5H-[1,2,4]triazolo[5,1-c][1,4]oxazine-2-carboxamide]
23 | 7.30 | CN1C(=O)[C@H](NC(=O)c2ncn(Cc3c(F)cccc3F)n2)CCn2cncc21 [Example 600, 1-[(2,6-difluorophenyl)methyl]-N-[(3R)-1-methyl-2-oxo-4,5-dihydro-3H-imidazo[1,5-a][1,3]diazepin-3-yl]-1,2,4-triazole-3-carboxamide]
